Reference: the NIST ThermoML archive (doi:10.1021/acs.jced.6b00181)
± gives the expanded uncertainty stated by the source.

Assay: xn = mol fraction of the nth substance listed
Conditions: Liquid, Other PVT measurement

C=CC [propene] + CCCCCC
Conditions	mass density [kg/m3]
325.5 K, 6800 kPa, x1 = 0.8985	488.5 ± 4
325.5 K, 10700 kPa, x1 = 0.8985	500.7 ± 4.1
325.5 K, 13800 kPa, x1 = 0.8985	508.3 ± 4.1
325.5 K, 16100 kPa, x1 = 0.8985	513.5 ± 4.2
325.5 K, 20900 kPa, x1 = 0.8985	523.6 ± 4.2
325.5 K, 27600 kPa, x1 = 0.8985	535.1 ± 4.3
325.5 K, 34300 kPa, x1 = 0.8985	544.8 ± 4.4
325.5 K, 41300 kPa, x1 = 0.8985	554.1 ± 4.5
325.5 K, 48200 kPa, x1 = 0.8985	561.7 ± 4.5
325.5 K, 51600 kPa, x1 = 0.8985	566.7 ± 4.6
325.5 K, 55000 kPa, x1 = 0.8985	569.5 ± 4.6
325.5 K, 58400 kPa, x1 = 0.8985	574.2 ± 4.6
325.5 K, 61800 kPa, x1 = 0.8985	576.8 ± 4.6
325.5 K, 64200 kPa, x1 = 0.8985	580.1 ± 4.7
325.5 K, 67100 kPa, x1 = 0.8985	582.4 ± 4.7
370.2 K, 5200 kPa, x1 = 0.9003	385.2 ± 3.6
370.2 K, 5900 kPa, x1 = 0.9003	392.1 ± 3.6
370.2 K, 7300 kPa, x1 = 0.9003	406 ± 3.6
370.2 K, 10700 kPa, x1 = 0.9003	429.7 ± 3.7
370.2 K, 14200 kPa, x1 = 0.9003	447.3 ± 3.7
370.2 K, 17300 kPa, x1 = 0.9003	459.2 ± 3.8
370.2 K, 20800 kPa, x1 = 0.9003	469.1 ± 3.8
370.2 K, 24100 kPa, x1 = 0.9003	478.3 ± 3.9
370.2 K, 31300 kPa, x1 = 0.9003	495.2 ± 4
370.2 K, 38000 kPa, x1 = 0.9003	508.5 ± 4.1
370.2 K, 44600 kPa, x1 = 0.9003	519.7 ± 4.2
370.2 K, 46900 kPa, x1 = 0.9003	523.6 ± 4.2
370.2 K, 48000 kPa, x1 = 0.9003	523.6 ± 4.2
370.2 K, 50600 kPa, x1 = 0.9003	529.1 ± 4.3
370.2 K, 51400 kPa, x1 = 0.9003	529.1 ± 4.3
370.2 K, 57800 kPa, x1 = 0.9003	538.5 ± 4.3
370.2 K, 61800 kPa, x1 = 0.9003	544.3 ± 4.4
370.2 K, 67100 kPa, x1 = 0.9003	550.3 ± 4.4
374.1 K, 2800 kPa, x1 = 0.606	465.7 ± 3.9
374.1 K, 2900 kPa, x1 = 0.606	467 ± 3.9
374.1 K, 3800 kPa, x1 = 0.606	471.2 ± 3.9
374.1 K, 5500 kPa, x1 = 0.606	479 ± 4
374.1 K, 7300 kPa, x1 = 0.606	486.2 ± 4.1
374.1 K, 10600 kPa, x1 = 0.606	497.9 ± 4.1
374.1 K, 17400 kPa, x1 = 0.606	515.3 ± 4.2
374.1 K, 24000 kPa, x1 = 0.606	528.5 ± 4.3
374.1 K, 31000 kPa, x1 = 0.606	540.7 ± 4.4
374.1 K, 37900 kPa, x1 = 0.606	551.3 ± 4.4
374.1 K, 38000 kPa, x1 = 0.606	551.7 ± 4.5
374.1 K, 44700 kPa, x1 = 0.606	560.9 ± 4.5
374.1 K, 51300 kPa, x1 = 0.606	569.2 ± 4.6
374.1 K, 58100 kPa, x1 = 0.606	577.4 ± 4.6
374.1 K, 63300 kPa, x1 = 0.606	583.4 ± 4.7
374.1 K, 66900 kPa, x1 = 0.606	587.4 ± 4.7
423.6 K, 16600 kPa, x1 = 0.9003	385.2 ± 3.3
423.6 K, 17400 kPa, x1 = 0.9003	389.1 ± 3.3
423.6 K, 20800 kPa, x1 = 0.9003	408.2 ± 3.4
423.6 K, 24300 kPa, x1 = 0.9003	424 ± 3.5
423.6 K, 31200 kPa, x1 = 0.9003	449.1 ± 3.7
423.6 K, 37900 kPa, x1 = 0.9003	462.3 ± 3.8
423.6 K, 44800 kPa, x1 = 0.9003	479.8 ± 3.9
423.6 K, 51600 kPa, x1 = 0.9003	493 ± 4
423.6 K, 58300 kPa, x1 = 0.9003	504.1 ± 4.1
423.6 K, 59400 kPa, x1 = 0.9003	504.8 ± 4.1
423.6 K, 63700 kPa, x1 = 0.9003	512.3 ± 4.1
423.6 K, 67100 kPa, x1 = 0.9003	516.8 ± 4.2
424 K, 10100 kPa, x1 = 0.606	427.5 ± 3.7
424 K, 17500 kPa, x1 = 0.606	462.7 ± 3.8
424 K, 24300 kPa, x1 = 0.606	484.2 ± 4
424 K, 30800 kPa, x1 = 0.606	500.6 ± 4.1
424 K, 37900 kPa, x1 = 0.606	514.3 ± 4.2
424 K, 44700 kPa, x1 = 0.606	523.9 ± 4.2
424 K, 51400 kPa, x1 = 0.606	534.9 ± 4.3
424 K, 58300 kPa, x1 = 0.606	546 ± 4.4
424 K, 63000 kPa, x1 = 0.606	551 ± 4.4
424 K, 66900 kPa, x1 = 0.606	556 ± 4.5
424.7 K, 4800 kPa, x1 = 0.4466	433.6 ± 3.8
424.7 K, 7200 kPa, x1 = 0.4466	448.4 ± 3.9
424.7 K, 10700 kPa, x1 = 0.4466	467.6 ± 3.9
424.7 K, 17400 kPa, x1 = 0.4466	492.5 ± 4
424.7 K, 21000 kPa, x1 = 0.4466	502.4 ± 4.1
424.7 K, 24300 kPa, x1 = 0.4466	511.5 ± 4.2
424.7 K, 31000 kPa, x1 = 0.4466	525 ± 4.3
424.7 K, 37800 kPa, x1 = 0.4466	537.6 ± 4.3
424.7 K, 44700 kPa, x1 = 0.4466	548.4 ± 4.4
424.7 K, 51500 kPa, x1 = 0.4466	558.4 ± 4.5
424.7 K, 58300 kPa, x1 = 0.4466	567.4 ± 4.6
424.7 K, 63900 kPa, x1 = 0.4466	573.9 ± 4.6
424.7 K, 67500 kPa, x1 = 0.4466	578.1 ± 4.7
425 K, 1800 kPa, x1 = 0.1414	494.2 ± 4.1
425 K, 3700 kPa, x1 = 0.1414	504.2 ± 4.2
425 K, 5100 kPa, x1 = 0.1414	510.4 ± 4.2
425 K, 7000 kPa, x1 = 0.1414	517.7 ± 4.2
425 K, 10400 kPa, x1 = 0.1414	528.7 ± 4.3
425 K, 17300 kPa, x1 = 0.1414	546.6 ± 4.5
425 K, 17500 kPa, x1 = 0.1414	547.3 ± 4.4
425 K, 20600 kPa, x1 = 0.1414	553.9 ± 4.5
425 K, 24100 kPa, x1 = 0.1414	561.4 ± 4.5
425 K, 27600 kPa, x1 = 0.1414	567.6 ± 4.6
425 K, 30900 kPa, x1 = 0.1414	573.2 ± 4.6
425 K, 34300 kPa, x1 = 0.1414	578.9 ± 4.7
425 K, 37800 kPa, x1 = 0.1414	584.7 ± 4.7
425 K, 41100 kPa, x1 = 0.1414	589.1 ± 4.8
425 K, 44600 kPa, x1 = 0.1414	594.3 ± 4.8
425 K, 51900 kPa, x1 = 0.1414	603.8 ± 4.9
425 K, 54400 kPa, x1 = 0.1414	607.1 ± 4.9
425 K, 58600 kPa, x1 = 0.1414	612.3 ± 4.9
425 K, 61800 kPa, x1 = 0.1414	615.7 ± 5
425 K, 63600 kPa, x1 = 0.1414	617.9 ± 5
425 K, 66700 kPa, x1 = 0.1414	621 ± 5
500.9 K, 12400 kPa, x1 = 0.1414	449.6 ± 3.8
500.9 K, 13900 kPa, x1 = 0.1414	457.6 ± 3.8
500.9 K, 20800 kPa, x1 = 0.1414	486.8 ± 4
500.9 K, 24600 kPa, x1 = 0.1414	500.5 ± 4.1
500.9 K, 27500 kPa, x1 = 0.1414	508.9 ± 4.1
500.9 K, 31000 kPa, x1 = 0.1414	517.7 ± 4.2
500.9 K, 37300 kPa, x1 = 0.1414	531.3 ± 4.3
500.9 K, 37900 kPa, x1 = 0.1414	531.3 ± 4.3
500.9 K, 41400 kPa, x1 = 0.1414	537.5 ± 4.4
500.9 K, 44700 kPa, x1 = 0.1414	543.2 ± 4.4
500.9 K, 44800 kPa, x1 = 0.1414	543.5 ± 4.4
500.9 K, 47100 kPa, x1 = 0.1414	549 ± 4.4
500.9 K, 48100 kPa, x1 = 0.1414	549 ± 4.4
500.9 K, 51500 kPa, x1 = 0.1414	554.6 ± 4.5
500.9 K, 54900 kPa, x1 = 0.1414	559.9 ± 4.5
500.9 K, 58400 kPa, x1 = 0.1414	565.4 ± 4.6
500.9 K, 61800 kPa, x1 = 0.1414	569.8 ± 4.6
500.9 K, 64600 kPa, x1 = 0.1414	574 ± 4.6
500.9 K, 67400 kPa, x1 = 0.1414	577.4 ± 4.7
501 K, 7900 kPa, x1 = 0.4466	293.3 ± 3
501 K, 9200 kPa, x1 = 0.606	230.6 ± 4.7
501 K, 9700 kPa, x1 = 0.4466	331 ± 6.7
501 K, 10100 kPa, x1 = 0.4466	330.6 ± 3
501 K, 10700 kPa, x1 = 0.606	272.7 ± 4.3
501 K, 12400 kPa, x1 = 0.606	306.1 ± 3.4
501 K, 12600 kPa, x1 = 0.4466	363.8 ± 3.5
501 K, 17200 kPa, x1 = 0.4466	401.7 ± 3.5
501 K, 17300 kPa, x1 = 0.606	362 ± 3.4
501 K, 20700 kPa, x1 = 0.606	386.4 ± 3.4
501 K, 21900 kPa, x1 = 0.4466	428.7 ± 3.6
501 K, 22000 kPa, x1 = 0.4466	433.3 ± 3.6
501 K, 24000 kPa, x1 = 0.4466	436.5 ± 3.6
501 K, 24400 kPa, x1 = 0.4466	440.8 ± 3.7
501 K, 25200 kPa, x1 = 0.606	411.3 ± 3.5
501 K, 29000 kPa, x1 = 0.606	429 ± 3.6
501 K, 31000 kPa, x1 = 0.606	435.7 ± 3.6
501 K, 31200 kPa, x1 = 0.4466	463.6 ± 3.8
501 K, 34600 kPa, x1 = 0.4466	473.3 ± 3.9
501 K, 37900 kPa, x1 = 0.4466	482.2 ± 3.9
501 K, 37900 kPa, x1 = 0.606	455.7 ± 3.7
501 K, 44800 kPa, x1 = 0.606	473.6 ± 3.8
501 K, 45000 kPa, x1 = 0.4466	497.7 ± 4
501 K, 51400 kPa, x1 = 0.606	485.9 ± 3.9
501 K, 51600 kPa, x1 = 0.4466	509.9 ± 4.1
501 K, 57900 kPa, x1 = 0.4466	519.9 ± 4.2
501 K, 58400 kPa, x1 = 0.606	500 ± 4
501 K, 63000 kPa, x1 = 0.606	506.6 ± 4.1
501 K, 63200 kPa, x1 = 0.4466	527.6 ± 4.3
501 K, 67000 kPa, x1 = 0.606	512.8 ± 4.1
501 K, 67200 kPa, x1 = 0.4466	533.2 ± 4.3
584.6 K, 29000 kPa, x1 = 0.1414	449.8 ± 3.7
584.6 K, 31100 kPa, x1 = 0.1414	456.9 ± 3.8
584.6 K, 34700 kPa, x1 = 0.1414	468.2 ± 3.8
584.6 K, 37900 kPa, x1 = 0.1414	478 ± 3.9
584.6 K, 41400 kPa, x1 = 0.1414	487.3 ± 4
584.6 K, 44800 kPa, x1 = 0.1414	495.6 ± 4
584.6 K, 45100 kPa, x1 = 0.1414	496.5 ± 4
584.6 K, 48100 kPa, x1 = 0.1414	503.4 ± 4.1
584.6 K, 51700 kPa, x1 = 0.1414	510.7 ± 4.1
584.6 K, 55100 kPa, x1 = 0.1414	517.4 ± 4.2
584.6 K, 58400 kPa, x1 = 0.1414	523.9 ± 4.2
584.6 K, 61800 kPa, x1 = 0.1414	529 ± 4.3
584.6 K, 64200 kPa, x1 = 0.1414	532.9 ± 4.3
584.6 K, 67400 kPa, x1 = 0.1414	537.5 ± 4.3
